According to US10821148B2, “Pharmaceutical composition for treating or alleviating an autoimmune disease and/or complication thereof and/or nephritis and method for treating or alleviating an autoimmune disease and/or complication thereof and/or nephritis” (Industrial Technology Research Institute, priority 2016, dated 2020):
Where two headings read alike, the source gives them in different places.

Key:
[1] = test system: IL-17 secretion in peripheral blood leukocytes (PBLs); assay: Anti-IL-17 secretion screening, peripheral blood leukocyte (PBL) platform; format: cell-based; details: rat PBL, PMA + ionomycin, 48 hours
Experimental: 2. Method 2: Anti-IL-17 Secretion Drug Screening Through a Peripheral Blood Leukocyte (PBL) Platform
Blood of SD rat was obtained through saphenous vein sampling. The rat blood was placed in a centrifuge tube containing EDTA (final concentration was 2 mg/ml) and mixed well, and then 4-fold volume of ACK buffer was added to the centrifuge tube to lyse red blood cells. The above-mentioned centrifuge tube was placed in a 37° C. water bath for 5 minutes, and 4 folds volume of PBS buffer was added to the centrifuge tube and the centrifuge tube was centrifuged at a speed of 3000 rpm for 5 minutes, and the supernatant was removed. After that, the steps for lysing red blood cells were repeated twice and an appropriate volume of cell culture medium was added to the centrifuge.
The cells was implanted to a 96-well plate (2×10^5 cells/well), and an appropriate concentration of a drug to be tested was added therein (10 μl/well) and evenly mixed. Next, the 96-well plate was placed in an incubator at 37° C. with 5% CO2 for 1 hour. After that, the stimuli, phorbol-12-myristate-13-acetate (PMA) (final concentration was 30 ng/ml), and ionomycin (final concentration was 1 μg/ml) were added to the 96-well plate. After being evenly mixed, the 96-well plate was placed in an incubator for 48 hours.
After 48 hours of culturing, the 96-well plate was centrifuged at 3000 rpm for 5 minutes to let the cells precipitate and the supernatant (cell-cultured medium) was transferred to a new 96-well plate (about 155 μl/well).
After the cell-cultured medium in the new 96 well plate was 2-4 fold diluted, a rat IL-17 ELISA kit (eBioscience, 88-7170) was used to determine IL-17 content thereof.
For both of cell viability assay and IL-17 content assay, the result of the group adding phorbol-12-myristate-13-acetate (PMA) and ionomycin was set as 100%, and secretion of IL-17 was shown by percentage.

IL-6 = assay: Lipopolysaccharide (LPS)-induced acute inflammation in mice, IL-6; format: in vivo; details: plasma, 1.5 hours after 1 mg/kg LPS IP, BALB/c mice
Description: (§1) 5. Method 5: Model of Lipopolysaccharide (LPS)-Induced Acute Inflammation in Mice
(§2) 6-8 weeks old male BALB/c mice were purchased from BioLASCO Taiwan Co., Ltd. On the day that the animals entered, the mice were marked, separated into cages, and weighed. Then, the mice were quarantined for one week, and the breeding conditions meet the standards of the National Laboratory Animal Center (Taiwan). During the quarantine, the motility and environmental adaptability of the mice were observed. If the body weights of the mice increased normally, the mice were moved to the breeding region to await the implementation of the experiment.
(§3) Illumination for the breeding region was automatically controlled for 12-hr light-dark cycle, and the temperature was controlled at 23±2° C. The animals were free to obtain sufficient food and water. This strain of animals has had abundant basic reference information and data, and can be suitable for a functional evaluation test for inflammation, and the experimental method had been approved by Institutional Animal Care and Use Committees (IACUC) in the Industrial Technology Research Institute.
(§4) 5.2 Treatment of the Mice
(§5) Before the experiment, the mice were weighed and grouped to make the average body weight for each group has no obvious difference, and the clinical symptoms of the mice were recorded. Two to four hours before the experiment, the mice were fasting, but water was still regularly provided. At a specific time before or after being stimulated by lipopolysaccharides (LPS), the mice were administered a drug to be tested through oral administration, intraperitoneal injection (IP) or intravenous injection (IV), and after the administration, the clinical symptoms of the mice were observed and recorded. […] The mice were stimulated by 1 mg/kg lipopolysaccharides (0.25 ml/mouse) through intraperitoneal injection (IP), and the clinical symptoms of the mice were observed and recorded. […]
TNF-α, IL-6 and MCP-1 secretion amounts in the plasma were analyzed according to the analysis steps of Duoset® ELISA kit, and the steps are summarized as follows: […]

MCP-1 = assay: Lipopolysaccharide (LPS)-induced acute inflammation in mice, MCP-1; format: in vivo; details: plasma, 1.5 hours after 1 mg/kg LPS IP, BALB/c mice
Description: as §1, §2, §3, §4
Before the experiment, the mice were weighed and grouped to make the average body weight for each group has no obvious difference, and the clinical symptoms of the mice were recorded. Two to four hours before the experiment, the mice were fasting, but water was still regularly provided. At a specific time before or after being stimulated by lipopolysaccharides (LPS), the mice were administered a drug to be tested through oral administration, intraperitoneal injection (IP) or intravenous injection (IV), and after the administration, the clinical symptoms of the mice were observed and recorded. The mice of the control group were administered the same volume of solvent. The mice were stimulated by 1 mg/kg lipopolysaccharides (0.25 ml/mouse) through intraperitoneal injection (IP), and the clinical symptoms of the mice were observed and recorded.
After being stimulated by lipopolysaccharides for 1.5 hours, the mice were euthanized with excess CO2, and then whole blood of the mice was obtained through intra-cardiac puncture.
The whole blood of the mice was centrifuged at 6000 rpm at 4° C. for 10 minutes. After that, plasma was collected, and determinations of TNF-α, IL-6 and MCP-1 secretion amounts in the plasma were performed.
5.3 Determinations of TNF-α, IL-6 and MCP-1 Secretion Amounts
TNF-α, IL-6 and MCP-1 secretion amounts in the plasma were analyzed according to the analysis steps of Duoset® ELISA kit, and the steps are summarized as follows:
At room temperature, a capture antibody mixture solution was added to an ELISA 96 well plate (100 μl/well) to cover the surface of the ELISA 96-well plate. […]

[2] = test system: IL-17 secretion in EL4 cells; assay: Anti-IL-17 secretion screening, platform of EL4 cells; format: cell-based, mouse; details: PMA + ionomycin, 18 hours
Experimental: 8. Method 8: Anti-IL-17 Secretion Drug Screening Through a Platform of EL4 Cells
The EL4 cells were seeded into a 96-well plate (1×10^5 cells/well), and an appropriate concentration of a drug to be tested was added therein (10 μl/well) and evenly mixed.
Next, the 96-well plate was placed in an incubator at 37° C. with 5% CO2 for 1 hour. After that, the stimuli, phorbol-12-myristate-13-acetate (PMA) (final concentration was 10 ng/ml), and ionomycin (final concentration was 5 ng/ml) were added to the 96-well plate. After being evenly mixed, the 96-well plate was placed in an incubator for 18 hours.
After 18 hours of culturing, the 96-well plate was centrifuged at 1200 rpm for 5 minutes to let the cells precipitate and the supernatant (cell-cultured medium) was transferred to a new 96-well plate (about 155 μl/well).
The cell-cultured medium in the new 96-well plate was 2-4 fold diluted and the IL-17 concentration was determined by mouse IL-17 ELISA kit (R&D, DY421E).
For both of cell viability and IL-17 content assays, the results of the group with phorbol-12-myristate-13-acetate (PMA) and ionomycin were set as 100%, and the secretion of IL-17 was expressed by percentage.

TNF-α = assay: Lipopolysaccharide (LPS)-induced acute inflammation in mice, TNF-α; format: in vivo; details: plasma, 1.5 hours after 1 mg/kg LPS IP, BALB/c mice
Description: as §1
6-8 weeks old male BALB/c mice were purchased from BioLASCO Taiwan Co., Ltd. On the day that the animals entered, the mice were marked, separated into cages, and weighed. Then, the mice were quarantined for one week, and the breeding conditions meet the standards of the National Laboratory Animal Center (Taiwan). During the quarantine, the motility and environmental adaptability of the mice were observed. If the body weights of the mice increased normally, the mice were moved to the breeding region to await the implementation of the experiment. […]
as §5, with “Two to four hours before the experiment, the mice were fasting, but water was still regularly provided.” left out

NZBWF1/J mice = format: in vivo; details: for Survival rate (%): 50 mg/kg, NZBWF1/J mice
Description: 6. Method 6: NZBWF Autoimmune Animal Model for Systemic Lupus Erythematosus (SLE)
NZBWF1/J female mice were purchased from The Jackson Laboratory, U.S.A, and after animal quarantine, the mice were fed to an appropriate age (about 16 to 25 weeks old).
Before the experiment, mice were randomly grouped according to the antibody to double stranded DNA (dsDNA) value of sera, then the mice were started to administrate test articles. Mice were administrated 5 days a week, and after 10-18 weeks of continuous administration, the mice were sacrificed. During the administration, body weight change was recorded every week, mice urine were collected every 1 to 2 week by gently pressing the abdomens of the mice and the urinary protein content (mg/dl) was determined by test strips and a protein quantitative kit.
After the experiment was completed, the urine was collected and the whole blood of the mice was obtained through intra-cardiac puncture. After that, kidneys of the mice were exteriorized and weighed. The appearance and pathological changes of kidneys were recorded, and the kidneys were preserved in 10% neutral formalin for pathological examinations. The pathological score was determined according to the literature, Shackelford et al. Toxicol. Pathol. 30: 93-96, and shown by a score of 0 to 5: a score of 0 represents not present; a score of 1 represents minimal (<1%); a score of 2 represents slight (1-25%); a score of 3 represents moderate (26-50%); a score of 4 represents moderate/severe (51-75%), and a score of 5 represents severe (76-100%).
6.2 Determination of Protein Content in Urine
The abdomen (bladder) of the mouse was gently pressed every 1 to 2 week to make the mouse urinate and the urine was collected in a 1.5 ml centrifuge tube, the protein content (mg/dl) in the urine was determined by urine test strip. The test strip was moistened with the urine and stood for 1 minute, and the protein content was determined by the color shown by the test strip. […] If the color shown by the test strip is between two color regions, the urinary protein content is determined by the mean of the values represented by the two regions. […]
The contents of blood urea nitrogen (BUN) and creatinine (CRE) in the serum were determined by FUJI DRI-CHEM 4000i biochemistry analyzer, and the steps are summarized as follows:
Before the experiment, the urea nitrogen and creatinine test strips and the serum to be tested were placed at room temperature to back to room temperature. After that, according to the instructions of the analyzer, 10 μl of serum was added to the central portion of the test strip (if the value exceeded the detectable range, the serum was appropriately diluted with sterilized water), and then determined. […]

Row | Compound | IL-17 inhibition IC50, peripheral blood leukocyte (PBL) [1] [µg/mL] | production of the inflammatory factor IL-6 (IL-6) | production of the inflammatory factor MCP-1 (MCP-1) | IL-17 inhibition IC50, EL4 cells [2] [µg/mL] | production of the inflammatory factor TNF-α (TNF-α) | other results
1 | COc1c(CC=C(C)C)c(C=O)cc2c1[nH]c1ccccc12 [F3m, indizoline] | 2.4 | capable of significantly inhibiting the production of the inflammatory factor, IL-6 | capable of significantly inhibiting the production of the inflammatory factor, MCP-1 | 2.8 | – | –
2 | CC(C)=CCCC(C)=CCOc1c2occc2cc2ccc(=O)oc12 [F4m, 8-geranyloxypsoralen] | 4.3 | capable of significantly inhibiting the production of the inflammatory factor, IL-6 | capable of significantly inhibiting the production of the inflammatory factor, MCP-1 | 15.9 | capable of significantly inhibiting the production of the inflammatory factor, TNF-α | survival rate of NZBWF1/J mice (in words) (NZBWF1/J mice; concluded from HE-07-Fr4 (more than 80% of F4m), Table 10): capable of effectively improving the survival rate of NZBWF1/J mice
3 | CC(C)=CCOc1c2occc2cc2ccc(=O)oc12 [F5m, imperatorin] | – | – | capable of significantly inhibiting the production of the inflammatory factor, MCP-1 | – | capable of significantly inhibiting the production of the inflammatory factor, TNF-α | IC50 ([1]; Leukocyte, read-out: IL-17 inhibition IC50, peripheral blood leukocyte (PBL)): 20.5 µg/mL; IC50 ([2]; Mus musculus, read-out: IL-17 inhibition IC50, EL4 cells): 45 µg/mL
4 | CC1(C)O[C@@H]1COc1c2occc2cc2ccc(=O)oc12 [F7m, prangenin] | 28.7 | – | – | 47.2 | – | –
5 | O=P1(N(CCCl)CCCl)NCCCO1 (centres unmarked) [cyclophosphamide] | – | – | – | – | – | Survival rate (%) (NZBWF1/J mice; Table 4 study): 100%; Survival rate (%) (NZBWF1/J mice; Table 8 study): 100%; Survival rate (%) (NZBWF1/J mice; Table 10 study, 12 weeks): 100%
6 | ζ-clausenamide [F6m] | 3.0 | capable of significantly inhibiting the production of the inflammatory factor, IL-6 | capable of significantly inhibiting the production of the inflammatory factor, MCP-1 | 5.1 | – | –
